“Also recorded” adds a separate entry of the source.
Columns and labels:
[1] = test system: PR72/130 subunit of the serine/threonine phosphatase PP2A; experiment: binding to PP2A subunit
Description: (§1) IQ-1. In addition to ICG-001, a screen of a large chemical library for maintenance of pluripotency in mES cells led to the identification of another compound, termed IQ-1 (FIG. 2b). […] I-Q-1 diminishes the interaction between p300 and beta-catenin thereby increasing the CBP/beta-catenin interaction (24).

[2] = test system: mitotic cells in the ventricular zone (VZ); experiment: symmetric versus asymmetric divisions (Par3 distribution) in the ventricular zone of mouse embryos; format: in vivo
Description: Taking advantage of the ready uptake and penetration through the placental barrier of applicant's small molecule Wnt modulators, applicant designed a series of experiments to investigate symmetric versus asymmetric divisions in the ventricular zone (VZ) of the brain during mouse embryonic development. Timed pregnant mice were topically treated for various time periods (1-3 days) with DMSO (vehicle control), the CBP/catenin antagonist ICG-001 or the p300/catenin antagonist IQ-1. Using a previously described protocol (56), the localization of […] (Par3) and DNA was examined in mitotic cells in the VZ. Par3 distributes symmetrically in cells that divide symmetrically and asymmetrically in cells that divide asymmetrically, whereas the DNA distributes symmetrically between the 2 cells. Using fluorescence microscopy, the percentage of mitotic cells dividing symmetrically or asymmetrically could be quantified. […] Antagonizing the CBP/catenin interaction with ICG-001 had no apparent effect yielding similarly, approximately 21% asymmetric divisions. […] Importantly, this decrease in asymmetric divisions upon treatment with IQ-1 could be rescued back essentially to control levels (i.e. ˜21%) by treatment with a 2-fold excess of ICG-001. Even further divergence in symmetric versus asymmetric divisions could be seen upon prolonged treatments. For example, treatment with IQ-1 (i.e., antagonizing p300/catenin interaction leading to increased usage of CBP) for 3 days (E13.5-16.5) decreased asymmetric divisions compared to control from 31% to 7%. […] This reporter mouse expresses EGFP, driven by the Tis21 promoter, in cells that have undergone neurogenic differentiative divisions.
For example, Bultje et al (Bultje R Neuron 63, 189-202, 2009) describe an assay to measure asymmetric distributions in the ventricular zone (vz) to evaluate asymmetric divisions during neurogenesis. Essentially this involves treating the animal (either adult or in utero) for a set period of time with compounds (either p.o., s.c., i.v. or topically) with compounds and then sacrificing the animal and examining the Par3 distribution (e.g., via immunohistochemistry) in mitotic cells vs. DNA distribution (e.g., using DAPI staining) Par3 distributes equally among the two daughter cells during symmetric division and unequally (essentially all in one daughter cell) during asymmetric differentiation.

[3] = test system: murine embryonic stem cells (mESCs); experiment: long-term culture of murine embryonic stem cells; format: cell-based, mouse; details: Wnt-dependent
Description: as §1

[4] = test system: skin injury; experiment: skin injury repair in normal and hair-less mice; format: in vivo, mouse; details: 500 μM in vaseline, once a day for eight days
Procedure: The ability of CBP/catenin (e.g., CBP/β-catenin) antagonist to accelerate injured skin repair in normal mice models (having full hair growth and normal fur) and hair-less mice models was tested. In brief, on day 0, the animals were subjected to skin injury in two spots on the back, hind end of each animal. Each skin injury spot was treated with 500 μM of either Vaseline (petrolatum) (vehicle) or Laura-8 in vaseline once a day for eight days.

[5] = test system: normal stem cell niche; experiment: aging mice, long term topical administration; format: in vivo, mouse; details: 12 months (6 to 18 months of age)
Description: Left mouse is control, whereas right mouse received CBP/catenin (e.g., CBP/β-catenin) antagonists (topical Laura-8 as disclosed herein) for 12 months (from 6 months of age to 18 months of age).

[6] = test system: hair-less mouse model; experiment: hair growth in hair-less mouse model; format: in vivo; details: vs petroleum jelly
Procedure: The ability of CBP/β-catenin antagonist to stimulate hair growth in a hair-less mouse model was tested. In brief, the animals were treated with either petroleum jelly or Laura-8 for 16 days. In addition, skin samples from each animal were taken and examined for hair-follicle formulation.

[7] = test system: elastin; experiment: ex vivo human skin assay, qRT-PCR of elastin; format: cell-based; details: 24 hrs; 5 uM ICG-001, 5 uM methylated ICG-001, 1 ug/ml RA
Procedure: (§2) Methods. Ex Vivo human skin assay culture conditions were based upon a paper by Varani J et al Experimental and Molecular Pathology, 2004.
(§3) Briefly, human skin (surgical waste from plastic surgery procedures) was obtained and the subcutaneous layer of fat was trimmed manually with a scalpel. The skin was then cut into small fragments about 2 mm square and placed in 6 well plates. 1 ml of keratinocyte culture medium (Gibco 10724-011) with 1% P/S (penstrep antibiotic) was added to each well. The epidermis, bathed in media was placed facing up. On the next day (overnight culture in the media above), the skin fragments were transferred to fresh wells that contained either 5 uM ICG-001, 5-uM methylated ICG-001 or 1 ug/ml of retinoic acid (RA). After 24 hrs, skin samples in culture were removed for RNA isolation and qRT-PCR analysis of genes of interest (e.g. elastin (a gene involved in skin appearance and pliability (e.g., wrinkling) and aquaporin 1, which is involved with hydration.

[8] = test system: aquaporin 1; experiment: ex vivo human skin assay, qRT-PCR of aquaporin 1; format: cell-based; details: 24 hrs; 5 uM ICG-001, 5 uM methylated ICG-001, 1 ug/ml RA
Procedure: as §2, §3

CC(=O)c1ccc(N=NC(C(N)=O)=C2NC(C)(C)Cc3ccccc32)cc1 [IQ-1]
binding to PR72/130 [1]: binds to the PR72/130 subunit of the serine/threonine phosphatase PP2A | asymmetric divisions in the VZ ([2]; 3 days (E13.5-16.5)): 7% | effect on number of asymmetric divisions ([2]; topical or oral administration to pregnant mice): decreases the number of asymmetric divisions | asymmetric divisions in the VZ ([2]; topical to timed pregnant mice, 1 day (E13.5 to 14.5)): approximately 9% | maintenance of pluripotency [3]: maintains the pluripotency

CCCCCCCCCCCC(=O)Oc1ccc(C[C@H]2C(=O)N(Cc3cccc4ccccc34)C[C@@H]3N(C(=O)NCc4ccccc4)CCC(=O)N32)cc1 [Laura-8]
skin healing [4]: significantly accelerated skin healing process | depletion of the normal stem cell niche [5]: does not deplete the normal stem cell niche | hair growth ([6]; 16 days): significant hair growth | new hair-follicle formation (skin pathology) [6]: new hair-follicles were formed; also recorded: substantial new hair-follicle formation

C[C@H]1C2N(C(=O)NCc3ccccc3)CCC(=O)N2[C@@H](Cc2ccc(O)cc2)C(=O)N1Cc1cccc2ccccc12 (stereo partly drawn) [Me-ICG-001, (6S,9S)—N-benzyl-6-(4-hydroxybenzyl)-9-methyl-8-(naphthalen-1-ylmethyl)-4,7-dioxooctahydro-1H-pyrazino[1,2-a]pyrimidine-1-carboxamide]
expression of elastin [7]: larger increase | expression of aquaporin 1 [8]: larger increase

Reference: US9371330B2, “Substituted pyrazino[1,2-a]pyrimidines useful as CBP/catenin antagonists for enhancing asymmetric division of somatic stem cells” (University of Southern California, priority 2011, dated 2016)
